The values below come from patent publication US10689414B2 (Agios Pharmaceuticals, Inc., priority 2013, dated 2020).

The assay concerns U87MG cells. Briefly: Cellular assay, inhibition of 2-HG production in U87MG cells. It counts as cell-based. As to conditions: Homo sapiens, U-87 MG, 48 h. As for the experimental part:
Cells (HT1080 or U87MG) are grown in T125 flasks in DMEM containing 10% FBS, 1× penicillin/streptomycin and 500 ug/mL G418 (present in U87MG cells only). They are harvested by trypsin and seeded into 96 well white bottom plates at a density of 5000 cell/well in 100 ul/well in DMEM with 10% FBS. […] Cells are incubated overnight at 37° C. in 5% CO2. The next day test compounds are made up at 2× the final concentration and 100 ul are added to each cell well. The final concentration of DMSO is 0.2% and the DMSO control wells are plated in row G. The plates are then placed in the incubator for 48 hours. […] The cell plate is placed back in the incubator for another 24 hours. At 72 hours post compound addition, 10 mL/plate of Promega Cell Titer Glo reagent is thawed and mixed. The cell plate is removed from the incubator and allowed to equilibrate to room temperature. Then 100 ul of Promega Cell Titer Glo reagent is added to each well of media. The cell plate is then placed on an orbital shaker for 10 minutes and then allowed to sit at room temperature for 20 minutes. The plate is then read for luminescence with an integration time of 500 ms.
Regarding `N#Cc1ccnc(N2C(=O)OC[C@H]2C(=O)N(c2cncc(F)c2)[C@H](C(=O)NC2CCC(F)(F)CC2)c2ccccc2Cl)c1` [Compound 132, (S)—N—((S)-1-(2-Chlorophenyl)-2-((4,4-difluorocyclohexyl)amino)-2-oxoethyl)-3-(4-cyanopyri-din-2-yl)-N-(5-fluoropyridin-3-yl)-2-oxooxazolidine-4-carboxamide], the IC50 (commonly the concentration at which inhibition is half-maximal) is under 100 nM.
`N#Cc1ccnc(N2C(=O)CC[C@H]2C(=O)N(c2cccc(OC(F)F)c2)[C@H](C(=O)NC2CC(F)(F)C2)c2ccccc2Cl)c1` [Compound 181, (S)—N—((S)-1-(2-Chlorophenyl)-2-((3,3-difluorocyclobutyl)amino)-2-oxoethyl)-1-(4-cyanopyridin-2-yl)-N-(3-(difluoromethoxy)phenyl)-5-oxopyrrolidine-2-carboxamide] showed an IC50 of under 100 nM.
Regarding `Cc1ccc(N2C(=O)CC[C@H]2C(=O)N(c2cccc(F)c2)[C@H](C(=O)NC2CC(F)(F)C2)c2ccccc2Cl)nc1` [Compound 21], the IC50 was in the range of 100 to 500 nM.
To `N#Cc1ccnc(N2C(=O)CN(CCO)C[C@H]2C(=O)N(c2cc(F)cc(F)c2)[C@H](C(=O)NC2CC(F)(F)C2)c2ccccc2Cl)c1` [Compound 107, (S)—N—((S)-1-(2-chlorophenyl)-2-((3,3-difluorocyclobutyl)amino)-2-oxoethyl)-1-(4-cyanopyridin-2-yl)-N-(3,5-difluorophenyl)-4-(2-hydroxyethyl)-6-oxopiperazine-2-carboxamide] belongs under 100 nM; to `COc1cccc(N(C(=O)[C@@H]2CCC(=O)N2c2nccc(C#N)n2)[C@H](C(=O)NC2CC(F)(F)C2)c2ccccc2Cl)c1` [Compound 164, (S)—N—((S)-1-(2-Chlorophenyl)-2-(3,3-difluorocyclobutyl-amino)-2-oxoethyl)-1-(4-cyanopyrimidin-2-yl)-N-(3-methoxyphenyl)-5-oxopyrrolidine-2-carboxamide], under 100 nM; to `N#Cc1ccnc(N2C(=O)CC[C@H]2C(=O)N(c2cncc(F)c2)C(C(=O)NC2CC(F)(F)C2)c2ccccc2Cl)c1` (some centres unmarked) [Compound 91], under 100 nM.
To `N#Cc1ccnc(N2C(=O)CC[C@H]2C(=O)N(c2cccc(S(N)(=O)=O)c2)[C@H](C(=O)NC2CC(F)(F)C2)c2ccccc2Cl)c1` [Compound 84, (S)—N—((S)-1-(2-Chlorophenyl)-2-(3,3-difluorocyclobutylamino)-2-oxoethyl)-1-(4-cyanopyridin-2-yl)-5-oxo-N-(3-sulfamoylphenyl)pyrrolidine-2-carboxamide] belongs 100 to 500 nM; to `N#Cc1cccc(N(C(=O)[C@@H]2CCC(=O)N2c2cc(C#N)ccn2)[C@H](C(=O)NC2CC(F)(F)C2)c2ccccc2Cl)c1` [Compound 128, (S)—N—((S)-1-(2-Chlorophenyl)-2-((3,3-difluorocyclobutyl)amino)-2-oxoethyl)-N-(3-cyano-phenyl)-1-(4-cyanopyridin-2-yl)-5-oxopyrrolidine-2-carboxamide], under 100 nM; to `N#Cc1cccc(N(C(=O)[C@@H]2C[C@@H](O)C(=O)N2c2cc(C#N)ccn2)C(C(=O)NC2CC(F)(F)C2)c2ccccc2Cl)c1` (stereo partly drawn) [Compound 170, (2S,4R)—N-(1-(2-chlorophenyl)-2-((3,3-difluorocyclobutyl)amino)-2-oxoethyl)-N-(3-cyano-phenyl)-1-(4-cyanopyridin-2-yl)-4-hydroxy-5-oxopyrrolidine-2-carboxamide], under 100 nM.
To `CN(C)S(=O)(=O)c1cccc(N(C(=O)[C@@H]2CCC(=O)N2c2cc(C#N)ccn2)[C@H](C(=O)NC2CC(F)(F)C2)c2ccccc2Cl)c1` [Compound 156, (S)—N—((S)-1-(2-Chlorophenyl)-2-(3,3-difluorocyclobutylamino)-2-oxoethyl)-1-(4-cyanopyri-din-2-yl)-N-(3-(N,N-dimethylsulfamoyl)phenyl)-5-oxopyrrolidine-2-carboxamide] belongs under 100 nM; to `N#Cc1ccnc(N2C(=O)CC[C@H]2C(=O)N(c2cncc(F)c2)[C@H](C(=O)NC2CC(F)(F)C2)c2ccccc2Cl)c1` [Compound 176, (S)—N—((S)-1-(2-Chlorophenyl)-2-(3,3-difluorocyclobutylamino)-2-oxoethyl)-1-(4-cyanopyridin-2-yl)-N-(5-fluoropyridin-3-yl)-5-oxopyrrolidine-2-carboxamide], under 100 nM; to `N#Cc1ccnc(N2C(=O)CC[C@H]2C(=O)N(c2cc(F)cc(F)c2)[C@H](C(=O)NC2CC(F)(F)C2)c2ccccc2Cl)c1F` [Compound 88, (S)—N—((S)-1-(2-Chlorophenyl)-2-((3,3-difluorocyclobutyl)amino)-2-oxoethyl)-1-(4-cyano-3-fluoropyridin-2-yl)-N-(3,5-difluorophenyl)-5-oxopyrrolidine-2-carboxamide], under 100 nM.
For `N#Cc1ccnc(N2C(=O)OC[C@H]2C(=O)N(c2cncc(F)c2)[C@H](C(=O)NC2CC(F)(F)C2)c2ccccc2Cl)c1` [Compound 135, (S)—N—((S)-1-(2-Chlorophenyl)-2-((3,3-difluorocyclobutyl)amino)-2-oxoethyl)-3-(4-cyanopyri-din-2-yl)-N-(5-fluoropyridin-3-yl)-2-oxooxazolidine-4-carboxamide], the half-inhibitory concentration (IC50) is under 100 nM.
In the case of `N#Cc1ccnc(N2C(=O)[C@H](O)C[C@H]2C(=O)N(c2cccc(F)c2)[C@@H](C(=O)NC2CCC(F)(F)CC2)c2ccccc2Cl)n1` [Compound 122, (2S,4R)—N—((R)-1-(2-Chlorophenyl)-2-((4,4-difluorocyclohexyl)amino)-2-oxoethyl)-1-(4-cyanopyrimidin-2-yl)-N-(3-fluorophenyl)-4-hydroxy-5-oxopyrrolidine-2-carboxamide], the half-inhibitory concentration (IC50) fell in the range of 100 to 500 nM.
On to `N#Cc1ccnc(N2C(=O)CC[C@H]2C(=O)N(c2cccc(-c3cn[nH]c3)c2)[C@H](C(=O)NC2CC(F)(F)C2)c2ccccc2Cl)c1` (single isomer, unassigned) [Compound 200], for which the 50% inhibitory concentration (IC50) is under 100 nM.
To `N#Cc1ccnc(N2C(=O)CC[C@H]2C(=O)N(c2cccc(C3CC3)c2)[C@H](C(=O)NC2CC(F)(F)C2)c2ccccc2Cl)c1` [Compound 173, (S)—N—((S)-1-(2-Chlorophenyl)-2-((3,3-difluorocyclobutyl)amino)-2-oxoethyl)-1-(4-cyanopyri-din-2-yl)-N-(3-cyclopropylphenyl)-5-oxopyrrolidine-2-carboxamide] belongs under 100 nM; to `N#Cc1ccnc(N2C(=O)CC[C@H]2C(=O)N(c2cccc3[nH]cnc23)C(C(=O)NC2CCC(F)(F)CC2)c2ccccc2Cl)c1` (stereo partly drawn) [Compound 141, (2S)—N-(1H-benzo[d]imidazol-7-yl)-N-(1-(2-chlorophenyl)-2-((4,4-difluorocyclohexyl)amino)-2-oxoethyl)-1-(4-cyanopyridin-2-yl)-5-oxopyrrolidine-2-carboxamide], under 100 nM.
With `N#Cc1ccnc(N2C(=O)CC[C@H]2C(=O)N(c2cc(F)cc(S(N)(=O)=O)c2)[C@H](C(=O)NC2CC(F)(F)C2)c2ccccc2Cl)c1` [Compound 158, (2S)—N-(1-(2-chlorophenyl)-2-(3,3-difluorocyclobutylamino)-2-oxo-ethyl)-1-(4-cyanopyridin-2-yl)-N-(3-fluoro-5-sulfamoylphenyl)-5-oxopyrrolidine-2-carboxamide] the figure was under 100 nM; with `N#Cc1ccnc(N2C(=O)NC[C@H]2C(=O)N(c2cccc(F)c2)[C@H](C(=O)NC2CC(F)(F)C2)c2ccccc2Cl)c1` [Compound 80, (S)—N—((S)-1-(2-chlorophenyl)-2-(3,3-difluorocyclobutylamino)-2-oxoethyl)-3-(4-cyanopyridin-2-yl)-N-(3-fluorophenyl)-2-oxoimidazolidine-4-carboxamide], under 100 nM.
To `N#Cc1ccnc(N2C(=O)OC[C@H]2C(=O)N(c2cccc(F)c2)[C@H](C(=O)NC2CC(F)(F)C2)c2ccccc2Cl)c1` [Compound 77, (S)—N—((S)-1-(2-Chlorophenyl)-2-(3,3-difluorocyclobutylamino)-2-oxoethyl)-3-(4-cyanopyri-din-2-yl)-N-(3-fluorophenyl)-2-oxooxazolidine-4-carboxamide] belongs under 100 nM.
Take `N#Cc1ccnc(N2C(=O)[C@H](O)C[C@H]2C(=O)N(c2cc(F)cc(F)c2)[C@@H](C(=O)NC2CC(F)(F)C2)c2ccccc2Cl)c1` [Compound 114, (2S,4R)—N—((R)-1-(2-Chlorophenyl)-2-((3,3-difluorocyclobutyl)amino)-2-oxoethyl)-1-(4-cyanopyridin-2-yl)-N-(3,5-difluorophenyl)-4-hydroxy-5-oxopyrrolidine-2-carboxamide]: the IC50 was under 100 nM.
The compound `N#Cc1ccnc(N2C(=O)[C@H](O)C[C@H]2C(=O)N(c2cccc(F)c2)[C@H](C(=O)NC2CCC(F)(F)CC2)c2ccccc2Cl)n1` [Compound 123, (2S,4R)—N—((S)-1-(2-Chlorophenyl)-2-((4,4-difluorocyclohexyl)amino)-2-oxoethyl)-1-(4-cyanopyrimidin-2-yl)-N-(3-fluorophenyl)-4-hydroxy-5-oxopyrrolidine-2-carboxamide] gave a 50% inhibitory concentration (IC50) of under 100 nM.
`N#Cc1ccnc(N2C(=O)CC[C@H]2C(=O)N(c2cc(F)cc(F)c2)[C@H](C(=O)NC2CC(F)(F)C2)c2cc(Cl)ccc2Cl)c1` [Compound 201, (S)-1-(4-Cyanopyridin-2-yl)-N—((S)-1-(2,5-dichlorophenyl)-2-((3,3-difluorocyclobutyl)-amino)-2-oxoethyl)-N-(3,5-difluorophenyl)-5-oxopyrrolidine-2-carboxamide] came in with an IC50 of under 100 nM.
